# Patent US20260007639A1, “COMPOUNDS FOR THE TREATMENT OF NEUROMUSCULAR DISORDERS” (NMD PHARMA A/S, priority 2017, published 2026)
# Key:
# [1] = test system: female Lewis rats; experiment: In situ isometric hindlimb force in anaesthetised rats with neuromuscular transmission partially inhibited by Cisatracurium; type: in vivo, rat; settings: 80 Hz stimulation, Cisatracurium infusion
# Experimental: Isometric hindlimb force was measured in 12-week old female Lewis rats in the presence and absence of compound.
# Rats were placed under anesthesia with isoflurane (2-4%), intubated and subsequently connected to a micro ventilator (Microvent 1, Hallowell EMC, US). Two stimulation electrodes were inserted through the skin to stimulate the sciatic nerve. A small incision was made proximal to the ankle, to expose the Achilles tendon, which was tied by cotton string, and connected to a force transducer (Fort250, World Precision Instruments) with adjustable position (Vernier control). The Achilles tendon was then cut distal to the attached cotton string. The rat was placed on a heated pad, and to prevent movement artefacts from contraction of the ankle dorsiflexors, the foot was fixated by tape on a footplate.
# Muscle contractile properties were assessed by applying an electrical current (under supramaximal voltage conditions) to the nerve and recording the force generated by the muscle. The muscle was stretched until maximal force was obtained, when assessed by 2 Hz stimulation. Isometric force was measured every 30 seconds at 12 Hz (Twitch), 10 pulses, and at every 5 minutes at 80 Hz (Tetanic) for 1 second (80 pulses). This stimulation pattern was employed throughout the experiment, expect in few cases where 80 Hz stimulation was replaced by 12 Hz (10 pulses). […] When the level of neuromuscular inhibition was stable, the test article was injected i.v. at the chosen concentration. The effect of test article was assessed on its ability to increase force generated from the stimulation pattern applied. The effect was assessed in the ability to increase force per se (tetanic, 80 Hz, stimulation), and the ratio between individual twitch peaks (12 Hz stimulation). The effect was monitored for at least 1 hour after injection of test article. In addition, the time from injection of test article to maximal effect on force (both twitch and tetanic) was noted and the time for the effect to disappear (return to baseline), if possible. When appropriate the infusion of neuromuscular blocking agent was ceased, with the stimulation pattern continued, and the return of force to control levels was monitored. Animals were sacrificed by cervical dislocation while still fully sedated.
# [2] = test system: rat soleus muscles; experiment: Recovery of force in isolated rat soleus nerve-muscle preparations after 115 nM tubocurarine, 50 μM compound (Table 8); settings: 40 mins exposure
# Summary of the method: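 Soleus nerve-muscle preparations from 4-5 wk old rats, force evoked by motor-nerve stimulation. After 90 min in 115 nM tubocurarine, 50 μM compound added with tubocurarine still present; force recovery after 40 min expressed as percentage of pre-tubocurarine force.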
Structure (SMILES),average increase in tetanic force ([1]; 44.8 mg/kg i.v.) [%],Point increase (%) of initial force that was restored [2] [%],average increase in tetanic force ([1]; 40.0 mg/kg i.v.) [%],average increase in tetanic force ([1]; 24.6 mg/kg i.v.) [%],average increase in tetanic force ([1]; 49.2 mg/kg i.v.) [%]
"O=C(O)COc1ccc(Br)cc1-c1ccon1 [Compound A-64, 2-[4-bromo-2-(1,2-oxazol-3-yl)phenoxy]acetic acid]",57.7,25,,,
"O=C(O)[C@H](CF)Oc1ccc(Br)cc1-c1ccon1 [Compound A-31, (2R)-2-[4-bromo-2-(1,2-oxazol-3-yl)phenoxy]-3-fluoropropanoic acid]",,36,34.1,,
"C[C@H](Oc1cc(F)c(Br)cc1-c1ccon1)C(=O)O [Compound A-44, (2S)-2-[4-bromo-5-fluoro-2-(1,2-oxazol-3-yl)phenoxy]propanoic acid]",,27,,46.2,
"C[C@H](Oc1ccc(Cl)cc1-c1ccno1)C(=O)O [Compound A-26, (2S)-2-[4-chloro-2-(1,2-oxazol-5-yl)phenoxy]propanoic acid]",,20,33.4,,
"C[C@H](Oc1ccc(Br)cc1-c1csnn1)C(=O)O [Compound A-59, (2S)-2-[4-bromo-2-(1,2,3-thiadiazol-4-yl)phenoxy]propanoic acid]",,20,,,42.8
